This is an account of results in ChEMBL document CHEMBL3797038, “Synthesis and pharmacological evaluation of new biphenylic derivatives as CB2 receptor ligands” (Eur J Med Chem, 2016).

The subject of one assay is CHO. Description: Selectivity index, ratio of Ki for human CB1 receptor expressed in CHO cell membranes to Ki for human CB2 receptor expressed in CHO cell membranes. It is filed as cell-based.
The target in assay [1] is T1, Cannabinoid receptor 2 (Homo sapiens, UniProt P34972). In words: Inverse agonist activity at human CB2 receptor expressed in CHO cell membranes after 90 mins by [35S]GTPgammaS binding assay. It is filed as functional.
T1 sequence (P34972 whole entry): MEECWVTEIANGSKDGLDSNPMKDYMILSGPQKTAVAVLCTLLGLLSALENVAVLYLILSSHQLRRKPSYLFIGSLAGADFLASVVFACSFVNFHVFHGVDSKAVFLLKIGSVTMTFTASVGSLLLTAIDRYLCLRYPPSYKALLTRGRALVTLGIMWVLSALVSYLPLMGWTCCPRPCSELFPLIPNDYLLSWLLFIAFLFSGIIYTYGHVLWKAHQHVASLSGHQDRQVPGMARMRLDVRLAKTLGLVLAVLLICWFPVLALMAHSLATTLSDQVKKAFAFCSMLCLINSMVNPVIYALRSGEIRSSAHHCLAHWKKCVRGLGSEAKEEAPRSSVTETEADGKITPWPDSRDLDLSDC
In a further assay the target is Cannabinoid receptor 1 (Homo sapiens, UniProt P21554). Description: Displacement of [3H]CP55940 from human CB1 receptor expressed in CHO cell membranes after 2 hrs. A general note: Loss of bound radioactivity is the signal in a displacement assay; it reports binding, not function.
Chain of Cannabinoid receptor 1 (P21554 whole entry): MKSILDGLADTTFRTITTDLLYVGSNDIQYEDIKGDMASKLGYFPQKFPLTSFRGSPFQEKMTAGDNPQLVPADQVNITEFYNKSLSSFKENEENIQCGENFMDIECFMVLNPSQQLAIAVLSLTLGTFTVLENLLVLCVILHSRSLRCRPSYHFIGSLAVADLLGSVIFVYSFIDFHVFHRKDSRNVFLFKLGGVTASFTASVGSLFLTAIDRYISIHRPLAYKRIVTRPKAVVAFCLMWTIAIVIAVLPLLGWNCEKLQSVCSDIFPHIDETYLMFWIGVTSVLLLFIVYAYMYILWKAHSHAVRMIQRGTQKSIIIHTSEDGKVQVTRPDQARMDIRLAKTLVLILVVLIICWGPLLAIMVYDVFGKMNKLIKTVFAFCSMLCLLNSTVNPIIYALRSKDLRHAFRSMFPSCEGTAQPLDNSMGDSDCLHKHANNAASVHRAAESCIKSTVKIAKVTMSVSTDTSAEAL
The target in assay [2] is T1, Cannabinoid receptor 2. In words: Displacement of [3H]CP55940 from human CB2 receptor expressed in CHO cell membranes after 2 hrs.
Assay [3] deals with T1, Cannabinoid receptor 2. In words: Neutral antagonist activity at human CB2 receptor expressed in CHO cell membranes after 90 mins by [35S]GTPgammaS binding assay. It is filed as functional. (In general: Binding of GTPγS marks nucleotide exchange on a G protein.)
Assay [4] deals with T1, Cannabinoid receptor 2. Description: Antagonist activity at human CB2 receptor expressed in CHO cell membranes assessed as inhibition of HU-210 mediated-stimulation at 1 to 10 uM by [35S]GTPgammaS binding assay. It is filed as functional.
Assay [5] addresses T1, Cannabinoid receptor 2. Description: Neutral antagonist activity at human CB2 receptor expressed in CHO cell membranes up to 10 uM after 90 mins by [35S]GTPgammaS binding assay. It is filed as functional.
The target of assay [6] is T1, Cannabinoid receptor 2. In words: Agonist activity at human CB2 receptor expressed in CHO cell membranes after 90 mins by [35S]GTPgammaS binding assay. It is filed as functional.
In assay [7] the target is T1, Cannabinoid receptor 2. Description: Inhibition of N-cycloheptyl-4-methoxy-5-methylbiphenyl-3-carboxamide maximal response at human CB2 receptor expressed in CHO cell membranes by [35S]GTPgammaS binding assay. It is filed as functional.
For assay [8], the target named is T1, Cannabinoid receptor 2. Description: Competitive antagonist activity at human CB2 receptor expressed in CHO cell membranes assessed as inhibition of N-cycloheptyl-4-methoxy-5-methylbiphenyl-3-carboxamide-mediated receptor stimulation by [35S]GTPgammaS binding assay. It is filed as functional.
Assay [9] addresses T1, Cannabinoid receptor 2. In words: Protean agonist activity at human CB2 receptor expressed in CHO cell membranes after 90 mins by [35S]GTPgammaS binding assay. It is filed as functional.

Structures are written as SMILES. The source made the active and inactive calls. The rule behind the calls is not given here.

By Ki is commonly meant the dissociation constant of the complex between target and ligand, obtained from inhibition or displacement. Regarding `CCCCc1cc(-c2ccc(F)cc2)cc(C(=O)NC2CCCCCC2)c1OC`, the Selectivity Index in the assay with CHO is 36.8. Further, the outcome on Cannabinoid receptor 2 [1] was Active. Besides, the figures for the Ki on Cannabinoid receptor 1 and on Cannabinoid receptor 2 [2] were 6110 nM and 166 nM, respectively.
In the case of `COc1c(Cc2ccc(F)cc2)cc(-c2ccc(F)cc2)cc1C(=O)N[C@H]1CC[C@@H](C)CC1`, the Selectivity Index with CHO turned out to be 3.2. The Ki at Cannabinoid receptor 1 was 1070 nM; on Cannabinoid receptor 2 [2], 337 nM.
For `COc1c(Cc2ccc(F)cc2)cc(-c2ccccc2)cc1C(=O)NC1CCCCCC1`, in the assay with CHO, the Selectivity Index stood at 10.7. Also, at Cannabinoid receptor 2 [1], the outcome was Active. Besides, the Ki turned out to be 904 nM at Cannabinoid receptor 1 and 84.1 nM on Cannabinoid receptor 2 [2].
With `C=CCc1ccc(OCCCC)c(-c2ccc(OCCCC)c(CC=C)c2)c1`, the Neutral antagonist activity result on Cannabinoid receptor 2 [3] is “Active”. On Cannabinoid receptor 2 [2], this molecule showed a Ki of 1780 nM.
Regarding `COc1c(Cc2ccccc2)cc(-c2ccccc2)cc1C(=O)NC1CCCCCC1`, the Selectivity Index with CHO turned out to be 2.6. The result at Cannabinoid receptor 2 [1] was Active. Moreover, the Ki came out at 1560 nM on Cannabinoid receptor 1 and 594 nM on Cannabinoid receptor 2 [2].
For the molecule `COc1c(Cc2ccc(F)cc2)cc(-c2ccc(F)cc2)cc1C(=O)N[C@H]1CC[C@H](C)CC1`, the Selectivity Index with CHO turned out to be 1.7. Also, the Ki at Cannabinoid receptor 1 amounted to 1850 nM; on Cannabinoid receptor 2 [2], 1090 nM.
For `C=CCc1ccc(O)c(-c2ccc(OCCCC)c(CC=C)c2)c1`, the inhibition constant Ki at Cannabinoid receptor 1 was found to be 615 nM; on Cannabinoid receptor 2 [2], 103 nM. Further, the Neutral antagonist activity result at Cannabinoid receptor 2 [3] is “Active”.
With `CCCCc1cc(-c2ccc(OC)cc2)cc(C(=O)NC2CCCCCC2)c1OC`, the inhibition entry on Cannabinoid receptor 2 [4] and on Cannabinoid receptor 2 [5] was “Active” in each case. Further, the Neutral antagonist activity result on Cannabinoid receptor 2 [3] is “Active”. For the same molecule, the Ki on Cannabinoid receptor 2 [2] was 249 nM.
Turning to `COc1c(Cc2ccccc2)cc(-c2ccccc2)cc1C(=O)N[C@H]1CC[C@H](C)CC1`, the Ki at Cannabinoid receptor 1 came to 2500 nM; on Cannabinoid receptor 2 [2], 4810 nM.
Regarding `COc1c(C)cc(-c2ccc(F)cc2)cc1C(=O)NC1CCCCCC1`, the outcome at Cannabinoid receptor 2 [6] was Active.
For `CCCCc1cc(-c2ccc(F)cc2)cc(C(=O)N[C@H]2CC[C@H](C)CC2)c1OC`, the Selectivity Index in the assay with CHO was greater than 5.8. Moreover, the inhibitory constant (Ki) on Cannabinoid receptor 1 is no less than 10000 nM; at Cannabinoid receptor 2 [2] it was 1760 nM.
Consider `CCCCc1cc(-c2ccccc2)cc(C(=O)N[C@H]2CC[C@@H](C)CC2)c1OC`, for which the Ki came out at 549 nM at Cannabinoid receptor 1 and 1260 nM on Cannabinoid receptor 2 [2].
On to `COc1ccc(-c2cc(C)c(OC)c(C(=O)NC3CCCCCC3)c2)cc1`, for which the Selectivity Index with CHO came out at 6.1. In addition, the Ki is 16500 nM at Cannabinoid receptor 1 and 2740 nM on Cannabinoid receptor 2 [2]. The Neutral antagonist activity entry on Cannabinoid receptor 2 [3] is “Active”.
`COc1ccc(-c2cc(Cc3ccc(F)cc3)c(OC)c(C(=O)N[C@H]3CC[C@H](C)CC3)c2)cc1`: the Selectivity Index in the assay on CHO amounted to 1.4. For the same molecule, the Ki was found to be 1170 nM on Cannabinoid receptor 1 and 811 nM on Cannabinoid receptor 2 [2].
`COc1c(Cc2ccc(F)cc2)cc(-c2ccccc2)cc1C(=O)N[C@H]1CC[C@H](C)CC1`: the Selectivity Index with CHO turned out to be 1.2. For the same molecule, the Ki was 3090 nM at Cannabinoid receptor 1 and 2620 nM on Cannabinoid receptor 2 [2].
Turning to `CCCCc1cc(-c2ccccc2)cc(C(=O)NC2CCCCCC2)c1OC`, in the assay with CHO, the Selectivity Index was determined as 5.3. Besides, the result at Cannabinoid receptor 2 [1] was Active. For the same molecule, the Ki was 1860 nM on Cannabinoid receptor 1 and 352 nM at Cannabinoid receptor 2 [2].
With `C=CCc1ccc(O)c(-c2ccc(OC)c(CC=C)c2)c1`, the result on Cannabinoid receptor 2 [6] was Active.
Take `COc1c(Cc2ccc(F)cc2)cc(-c2ccccc2)cc1C(=O)N[C@H]1CC[C@@H](C)CC1`: the Selectivity Index with CHO turned out to be 1.3. Further, the Ki on Cannabinoid receptor 1 was found to be 826 nM; on Cannabinoid receptor 2 [2], 1110 nM.
Take `C=CCc1cc(NC(C)=O)c(O)c(-c2ccc(OC)c(CC=C)c2)c1`: on Cannabinoid receptor 2 [2], the Ki was greater than 10000 nM.
At Cannabinoid receptor 2 [2], `COc1c(Cc2ccccc2)cc(-c2ccccc2)cc1C(=O)N[C@H]1CC[C@@H](C)CC1` had a Ki of 2670 nM.
On the same count and under the same terms, under `C=CCc1cc(NC(=O)CCCCCCCCCCC)c(O)c(-c2ccc(OC)c(CC=C)c2)c1` stands greater than 10000 nM.
Regarding `C=CCc1ccc(OC)c(-c2ccc(O)c(CC=C)c2)c1`, at Cannabinoid receptor 2 [6], the result was Active.
Take `CCCCc1cc(-c2ccc(F)cc2)cc(C(=O)N[C@H]2CC[C@@H](C)CC2)c1OC`: the Selectivity Index in the assay on CHO turned out to be 1.8. The Ki worked out at 2520 nM at Cannabinoid receptor 1 and 1410 nM on Cannabinoid receptor 2 [2].
As for `C=CCc1ccc(O)c(-c2ccc(O)c(CC=C)c2)c1`, the result on Cannabinoid receptor 2 [1] was Active. In addition, the Neutral antagonist activity entry at Cannabinoid receptor 2 [3] was “Active”.
With `COc1c(C)cc(-c2ccccc2)cc1C(=O)NC1CCCCCC1`, the Selectivity Index in the assay with CHO was determined as 4.5. Moreover, the inhibitory constant (Ki) at Cannabinoid receptor 1 came to 656 nM; at Cannabinoid receptor 2 [2], 148 nM. Besides, at Cannabinoid receptor 2 [6], the outcome was Active.
As to `C=CCc1ccc(OC)c(-c2ccc(OC)c(CC=C)c2)c1`, the outcome at Cannabinoid receptor 2 [6] was Active. In addition, the affinity on Cannabinoid receptor 2 [2] corresponds to a Ki of 1380 nM.
The molecule `C=CCc1cc(NC(=O)CCCCCCCCCCCCCCCCC)c(O)c(-c2ccc(OC)c(CC=C)c2)c1` yielded an inhibitory constant (Ki) at Cannabinoid receptor 2 [2] greater than 10000 nM.
On to `COc1ccc(-c2cc(Cc3ccc(F)cc3)c(OC)c(C(=O)NC3CCCCCC3)c2)cc1`, for which the Ki at Cannabinoid receptor 1 and at Cannabinoid receptor 2 [2] was no less than 10000 nM each time. For the same molecule, on Cannabinoid receptor 2 [3], the Neutral antagonist activity result was “Active”.
Turning to `COc1ccc(-c2cc(Cc3ccc(F)cc3)c(OC)c(C(=O)N[C@H]3CC[C@@H](C)CC3)c2)cc1`, the inhibition result on Cannabinoid receptor 2 [7] is “inactive”. Further, the Selectivity Index with CHO was 2. Further, the results for the Ki at Cannabinoid receptor 1 and on Cannabinoid receptor 2 [2] were 380 nM and 196 nM, respectively. In addition, the inhibition entry on Cannabinoid receptor 2 [8] was “Dose-dependent effect”.
Regarding `COc1c(Cc2ccc(F)cc2)cc(-c2ccc(F)cc2)cc1C(=O)NC1CCCCCC1`, the Selectivity Index in the assay with CHO is 10.7. Moreover, the result on Cannabinoid receptor 2 [1] was Active. Besides, the Ki on Cannabinoid receptor 1 came to 2830 nM; at Cannabinoid receptor 2 [2], 265 nM.
On to `CCCCc1cc(-c2ccccc2)cc(C(=O)N[C@H]2CC[C@H](C)CC2)c1OC`, for which the Ki on Cannabinoid receptor 1 stood at 3610 nM; on Cannabinoid receptor 2 [2], 2390 nM.
For `C=CCc1ccc(OCCCC)c(-c2ccc(O)c(CC=C)c2)c1`, the result on Cannabinoid receptor 2 [9] was Active.
